Data taken from publication PMC11509018, “Evaluation of the Role of Tanshinone I in an In Vitro System of Charcot-Marie-Tooth Disease Type 2N” (International Journal of Molecular Sciences, 2024).

Molecular target: T1, AlaRS N71Y binding to Nrp1 (Homo sapiens, UniProt P49588, N71Y)
T1 construct: expressed in transfected cells
T1 sequence (P49588 1-968 N71Y): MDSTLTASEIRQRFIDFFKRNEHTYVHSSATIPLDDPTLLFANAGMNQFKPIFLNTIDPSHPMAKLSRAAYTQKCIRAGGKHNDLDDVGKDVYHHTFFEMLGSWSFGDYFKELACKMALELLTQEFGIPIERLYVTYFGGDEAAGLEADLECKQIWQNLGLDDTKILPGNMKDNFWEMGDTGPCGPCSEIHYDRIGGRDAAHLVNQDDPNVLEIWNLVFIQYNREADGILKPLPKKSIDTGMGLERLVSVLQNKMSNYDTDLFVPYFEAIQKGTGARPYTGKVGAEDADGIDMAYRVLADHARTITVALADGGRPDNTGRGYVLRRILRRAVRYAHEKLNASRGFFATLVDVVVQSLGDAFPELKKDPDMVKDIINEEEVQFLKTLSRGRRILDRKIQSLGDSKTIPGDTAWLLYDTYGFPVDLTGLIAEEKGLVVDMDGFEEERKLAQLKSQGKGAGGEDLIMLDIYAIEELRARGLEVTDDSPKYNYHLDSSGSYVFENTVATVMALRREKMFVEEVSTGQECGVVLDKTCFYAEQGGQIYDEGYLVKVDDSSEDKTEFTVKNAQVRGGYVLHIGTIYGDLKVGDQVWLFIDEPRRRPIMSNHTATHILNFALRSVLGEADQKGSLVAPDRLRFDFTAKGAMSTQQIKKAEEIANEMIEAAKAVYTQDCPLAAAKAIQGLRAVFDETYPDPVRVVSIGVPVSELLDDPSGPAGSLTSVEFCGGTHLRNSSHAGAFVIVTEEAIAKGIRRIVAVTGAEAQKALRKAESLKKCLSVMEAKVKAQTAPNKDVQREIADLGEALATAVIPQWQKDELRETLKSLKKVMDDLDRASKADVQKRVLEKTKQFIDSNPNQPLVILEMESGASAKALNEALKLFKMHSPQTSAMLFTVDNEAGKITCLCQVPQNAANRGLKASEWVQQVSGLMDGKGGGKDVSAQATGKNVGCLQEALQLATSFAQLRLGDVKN
Assay: Co-IP of HA-AlaRS mutant with Nrp1 in transfected cells
Format: cell-based
Settings: 20 µM Tanshinone I for 24 h, ImageJ, average of three repeats
Method: To further investigate whether Tanshinone I-induced conformational changes in AlaRS CMT mutants affect their interaction with Nrp1, Co-IP experiments were performed in cells treated with Tanshinone I. By comparing Co-IP results obtained before and after treatment, we assessed the influence of the drug on the binding strength and mode between the AlaRS CMT mutants and Nrp1. […] To confirm the direct effect of Tanshinone I on the interaction between AlaRS CMT mutants and Nrp1, pull-down experiments were performed. […] Given that the interaction between AlaRS mutants and Nrp1 is associated with disease progression in CMT, the ability of Tanshinone I to disrupt this binding highlights its potential to intervene in the pathogenic mechanisms of these diseases.
Figure 7 The impact of Tanshinone I on the interaction between AlaRS mutants and Nrp1. (A) Co-IP assays were conducted to assess the binding between HA-AlaRS mutants and Nrp1, both with and without treatment with 20 µM Tanshinone I for 24 h. […] (C) Pull down assay was performed to detect the binding between AlaRS mutants and GST-Nrp1 b1 with or without 20 µM Tanshinone I. (D) Relative quantification statistics of the AlaRS mutants pulled down from the GST pull down experiments after Tanshinone I treatment were performed using ImageJ. (E) The cell viability of 293T and NSC34 cells treated with different concentrations of Tanshinone I was assessed using the CCK-8 assay over a 24 h period. TEXT PRINTED IN THE PICTURE: (B) Tanshinone I: Mean density band (N71Y): 0.60; Mean density band (G102R): 0.53; Mean density band (R326W): 0.50; Mean density band (R329H): 0.50; Mean density band (E337K): 0.62 | (D) Tanshinone I: Mean density band (N71Y): 0.82; Mean density band (G102R): 0.76; Mean density band (R326W): 0.84; Mean density band (R329H): 0.84; Mean density band (E337K): 0.90
Total protein was extracted from cells using RIPA buffer (50 mM Tris-HCl pH 7.4, 150 mM NaCl, 1% NP40, 1 mM EDTA) supplemented with a protease and phosphatase inhibitor cocktail (Roche, Basel, Switzerland). After SDS-PAGE, the protein on the gel was transferred to a PVDF membrane (Bio-Rad, Hercules, CA, USA) and then blocked with 5% non-fat dry milk in TBST for 1 h. Then, the membranes were incubated with the indicated primary antibodies and corresponding HRP-conjugated secondary antibodies. Signals were detected using the Bio-Rad ChemiDoc system (Bio-Rad, Shanghai, China). The following antibodies were used: Flag (Ray antibody biotech, Beijing, China, 1:3000), HA (Ray antibody biotech, Beijing, China, 1:3000), and GAPDH (Ray antibody biotech, Beijing, China, 1:5000).
To detect the binding of Nrp1 and AlaRS mutants in cells, whole-cell lysates (500 μg) were treated overnight with 2 μg of anti-Flag antibody in RIPA buffer. Next, Protein A/G agarose beads (#sc-2003, Santa Cruz Biotechnology, Santa Cruz, CA, USA) were applied to the lysates and the samples were further treated for 8–12 h with rotation. Samples were washed three times with RIPA buffer. Subsequently, the immunoprecipitations were resuspended into 2 × SDS-loading buffer. The samples were then boiled for 10 min and detected using Western blot. The experiment was repeated three times.

Mean density band (N71Y), relative quantification of AlaRS mutant immunoprecipitated: 0.60
Compound: Cc1coc2c1C(=O)C(=O)c1c-2ccc2c(C)cccc12 [Tanshinone I]
